Assay results reported in patent EP0370481A2, “Pharmaceutical preparations for the enhanced resorption of antibacterial compounds” (priority 1988, dated 1990).

Assays:
[1] = Enteral absorption in vivo (dogs): capsules through a modified Thomas cannula into the proximal jejunum, plasma level and bioavailability; conditions: for Cmax: beagle, dog, plasma
Method: Als Versuchstiere wurden sechs Beagle-Hunde im Gewicht von etwa 10-16 kg eingesetzt, denen eine modifizierte Thomaskanüle in das distale Duodenum eingesetzt worden war. […] Die Kapseln wurden durch die modifizierte Thomaskanüle in das proximale Jejunum appliziert. Die Dosierung war 20-50 mg Ceftriaxon pro kg Körpergewicht.
Die Plasmakonzentrationen von Ceftriaxon wurden vor der Verabreichung und 10, 20, 40, 60, 120, 180 und 240 Minuten nach der Verabreichung ermittelt. Zur Erstellung einer Standardkurve wurde Ceftriaxon mit normalem Hundeplasma verdünnt und deproteinisiert. Die Fläche unter der Kurve (AUC) wurde für jede Verabreichungsweise bestimmt. Aus diesen Bestimmungen wurde die Bioverfügbarkeit wie folgt berechnet. [formula]
Wenn keine i.v.-Daten für den gleichen enteral verwendeten Dosisspiegel verfügbar waren, wurde die folgende Gleichung angewandt: [formula]

[2] = Rectal absorption in vivo (monkeys): suppositories, plasma level
Text: Für diesen Versuch wurden männliche und weibliche erwachsene Affen (Papio anubis und Papio hamadryas) im Gewicht vom 12-27 kg verwendet, die 24 Stunden vor der Verabreichung des Antibiotikums fasten gelassen wurden, dann durch i.m.-Injektionen von Kefamin Hydrochlorid vor der Verabreichung des Antibiotikums sediert wurden. Aus den nachstehend beschriebenen Formulierungen wurden Suppositorien hergestellt die den Tieren verabreicht wurden. Die Rektalöffnungen wurden dann mit Klebeband verschlossen, um ein Herausdrücken der Suppositorienmasse zu vermeiden.
Zur Messung der Resorption des Antibiotikums in den Blutstrom wurden Blutproben aus der Femoralregion vor der Verabreichung des Antibiotikums und 15, 30, 60, 120, 240, 360 und 480 Minuten danach entnommen. Proben wurden zentrifugiert und wie oben beschrieben vermessen.

[3] = Oral absorption in vivo (dogs): enteric-coated hard gelatin capsules by gavage, plasma level; conditions: for Cmax: male, beagle, dog, plasma
Text: Für diesen Versuch wurden männliche Beagle-Hunde im Gewicht von 10-14 kg verwendet, die 2-3 Hartgelatinekapseln durch die Schlundsonde erhielten. Die Kapseln hatten folgende Zusammensetzung:
Die Kapseln waren mit einem Ueberzug von Polyvinylacetatphthalat (etwa 8% des Kapselgewichtes versehen).
Die Plasmakonzentrationen wurden von Ceftriaxon vor der Verabreichung und 10, 20, 40, 60, 120, 180 und 240 Minuten nach der Verabreichung ermittelt. Die Messungen wurden in Blutplasma nach Deproteinisierung weiter oben beschrieben ermittelt.

[4] = Enteral absorption in vivo (rats): intraduodenal injection, antibiotic plasma level by agar-plate bioassay; conditions: Dosis = 5 mg/0,5 ml
Text: Weibliche Ratten im Gewicht von etwa 250 g wurden über Nacht fasten gelassen und mit Metofan anästhesiert. Die Antibiotika wurden in Lösung mit oder ohne Resorptionsver, stärker nach Bauchschnitt in das Duodenum unterhalb des Magenausgangs injiziert. Für Vergleichszwecke wurde die Lösung alternativ intravenös in die Schwanzvene appliziert.
Die Konzentration des Antibiotikums im Plasma der Ratte wurde nach verschiedenen Zeitintervallen nach intravenöser oder enteraler Verabreichung bestimmt. Blutproben wurden aus der Schwanzvene des Versuchstiers vor der Verabreichung des Antibiotikums und 5, 10, 20, 40, 60, 120, 240 und 360 Minuten danach entnommen, danach zentrifugiert und das Plasma bis zur Analyse eingefroren.
Antibiotika, die nicht an Plasma gebunden waren, wurden mit Wasser verdünnt und gegen in Wasser hergestellte Standards geprüft. Für gebundene Antibiotika wurde der Einfluss der Proteinbindung eliminiert durch Verdünnen aller Standardlösungen und Proben im gesammelten Plasma. Im Fall von Ceftriaxon in Cefazolin wurde der Effekt der Bindung dadurch berücksichtigt, dass Plasmaproben mit Acetonitril mit einem Verdünnungsfaktor 1:12 deproteinisiert und gegen eine Standardkurve in Wasser verdünnt gemessen wurden. Antibiotikaspiegel wurden wie unten angegeben auf Agarplatten ermittelt.
Die Platten wurden bei 37°C über Nacht bebrütet und die Hemmzonen auf die nächsten […] abgelesen. Die Berechnungen wurden mittels einer Autoassaymaschine (Giles Scientific, Inc., New York) vorgenommen. Vergleiche J.V. Bennett et al., Applied Microbiology 14, 170-177 (1966).

[5] = Oral absorption in vivo (monkeys): enteric-coated hard gelatin capsules by gavage, plasma bioassay; conditions: for Cmax: monkey, plasma
Method: Erwachsene Affen (Papio anubis und Papio hamadryas) im Gewicht von 12-30 kg wurden über Nacht fasten gelassen, dann durch i.m.-Injektion von Ketaminhydrochlorid vor der Verabreichung des Antibiotikums sediert. Jeder Affe erhielt vier Hartgelatinekapseln durch Schlundsonde mit der folgenden Zusammensetzung:
Die Kapseln wurden mit einem Ueberzug von Polyvinylacetatphthalat (etwa 8% des Kapselgewichtes versehen).
1 ml Pro Blutproben wurden aus der Femoralregion jedes Affen mit einer heparinisierten 3-ml Spritze entnommen. Die Proben wurden vor der Verabreichung des Antibiotikums und 15, 30, 60, 120, 240, 360, 480, 600 und 720 Minuten danach entnommen. Die Blutproben wurden zentrifugiert und das Plasma nach Deproteinisierung mit Acetonitril einem Bioassay unterworfen.

[6] = enteral (proximal jejunum), 2 capsules with 210 ml Ceftriaxonnatrium in 280 mg WITEPSOL H15 + 157,5 mg Labrasol + 52,5 mg Laureth-12, 20-50 mg/kg
[7] = both sexes, monkey, plasma, 500 mg, rectal suppository, Mit Resorptionsverstärker System: 500 mg Antibiotikum, 125 mg Laureth-12, 250 mg Labrasol, 1125 mg Witepsol H15, read-out: Cmax Bereich
[8] = both sexes, monkey, plasma, rectal suppository, Kontrolle ohne Resorptionsverstärker, read-out: Cmax Bereich
[9] = rectal suppository, Kontrolle ohne Resorptionsverstärker
[10] = rectal suppository, Mit Resorptionsverstärker System: 500 mg Antibiotikum, 125 mg Laureth-12, 250 mg Labrasol, 1125 mg Witepsol H15
[11] = 2-3 enteric-coated capsules each 300 mg Ceftriaxonnatrium, 225 mg Labrasol, 75 mg Laureth-12, 380 mg Witepsol H15
[12] = Kontrollwert: Ceftriaxonnatrium 300 mg in the same capsule without absorption enhancer

Q: What does the source list for `CO/N=C(\C(=O)N[C@@H]1C(=O)N2C(C(=O)O)=C(CSc3nc(=O)c(=O)[nH]n3C)CS[C@H]12)c1csc(N)n1` [Ceftriaxon]?
A: Cmax [1, 6]: 19.5 µg/mL; Cmax ([1]; other: enteral, enteral, Kontrolle: solution of Ceftriaxon in water equivalent to 25 mg/kg, no absorption enhancer): 0.5 µg/mL; Bioverfügbarkeit [1, 6]: 45,4 ± 18,2%; Bioverfügbarkeit ([1]; enteral, Kontrolle: solution of Ceftriaxon in water equivalent to 25 mg/kg, no absorption enhancer): 0%; Cmax [2, 7]: 18.2 to 49.6 µg/mL; Cmax ([2]; both sexes, monkey, plasma, 600 mg, rectal, Kontrollwert: 600 mg Ceftriaxonnatrium in suppository mass without absorption enhancer, read-out: Cmax-Bereich): 0.3 to 9 µg/mL; Cmax ([2]; both sexes, monkey, plasma, 600 mg, rectal, formulation 600 mg Ceftriaxonnatrium, 200 mg Natriumcaprylat, 125 mg Laureth-12, 1075 mg Witepsol H15, read-out: Cmax-Bereich): 68.1 to 1000 µg/mL; Cmax [2, 8]: 0.3 to 9 µg/mL; % Bioverfügbarkeit [2, 9]: 4.3 ± 2.8%; % Bioverfügbarkeit [2, 10]: 31.5 ± 13.1%; Bioverfügbarkeit ([2]; rectal, Kontrollwert: 600 mg Ceftriaxonnatrium in suppository mass without absorption enhancer): 4,3%; Bioverfügbarkeit ([2]; rectal, formulation 600 mg Ceftriaxonnatrium, 200 mg Natriumcaprylat, 125 mg Laureth-12, 1075 mg Witepsol H15): 49,3 ± 13.7%; Bioverfügbarkeit [3, 11]: 34,2 ± 14,0%; Bioverfügbarkeit [3, 12]: 0%; Bioverfügbarkeit ([3]; formulation 300 mg Ceftriaxonnatrium, 200 mg Natriumcaprylat, 75 mg Laureth-12, 415 mg Witepsol H15): 22,4 + 13,5%; Cmax ([3]; 300 mg per capsule, formulation 300 mg Ceftriaxonnatrium, 200 mg Natriumcaprylat, 75 mg Laureth-12, 415 mg Witepsol H15): 14.4 µg/mL; Cmax [3, 11]: 21.6 µg/mL; Cmax ([4]; female, rat, plasma, 5 mg/0,5 ml, Cmax, Acconon Con + Laureth-12 (weight ratio 8:1)): 38.8 ± 22.6 µg/mL; Cmax ([4]; female, rat, plasma, 5 mg/0,5 ml, Cmax, Kontrolle Wasser, no absorption enhancer): 2.4 ± 1.9 µg/mL; Cmax ([4]; female, rat, plasma, 5 mg/0,5 ml, Cmax, Labrasol + Laureth-12 (weight ratio 8:1)): 106 ± 23 µg/mL; Cmax ([4]; female, rat, plasma, 5 mg/0,5 ml, Cmax, Natriumcaprylat (30%) + Laureth-12 (weight ratio 8:1)): 53.7 ± 13.3 µg/mL; Bioverfügbarkeit ([5]; 4 enteric-coated capsules each 300 mg Ceftriaxonnatrium, 225 mg Labrasol, 75 mg Laureth-12, 380 mg Witepsol H15): 10,8 ± 6,5%; Bioverfügbarkeit [5, 12]: 0%; Bioverfügbarkeit ([5]; formulation 300 mg Ceftriaxonnatrium, 75 mg Laureth-12, 415 mg Witepsol H15): 15,7 + 9,9%; Cmax ([5]; 300 mg per capsule, formulation 300 mg Ceftriaxonnatrium, 200 ml Natriumcaprylat, 75 mg Laureth-12, 415 mg Witepsol H15, read-out: Cmax-Bereich): 15 to 66.3 µg/mL; Cmax ([5]; 1200 mg, 4 enteric-coated capsules each 300 mg Ceftriaxonnatrium, 225 mg Labrasol, 75 mg Laureth-12, 380 mg Witepsol H15, read-out: Cmax-Bereich): 5.5 to 59.8 µg/mL

Q: Which results are given for `CN[C@H](CC(C)C)C(=O)N[C@H]1C(=O)N[C@@H](CC(N)=O)C(=O)N[C@H]2C(=O)N[C@H]3C(=O)N[C@H](C(=O)N[C@H](C(=O)O)c4cc(O)cc(O)c4-c4cc3ccc4O)[C@H](O)c3ccc(c(Cl)c3)Oc3cc2cc(c3O[C@@H]2O[C@H](CO)[C@@H](O)[C@H](O)[C@H]2O[C@H]2C[C@](C)(N)[C@H](O)[C@H](C)O2)Oc2ccc(cc2Cl)[C@H]1O` [Vancomycin]?
A: Cmax ([4]; female, rat, in vivo, 5 mg/0,5 ml, Cmax, Kontrolle Wasser, no absorption enhancer): 2.9 ± 0.6 µg/mL; Cmax ([4]; female, rat, in vivo, 5 mg/0,5 ml, Cmax, Labrasol + Laureth-12 (weight ratio 8:1)): 6.9 ± 1 µg/mL; Cmax ([4]; female, rat, in vivo, 5 mg/0,5 ml, Cmax, Natriumcaprylat (30%) + Laureth-12 (weight ratio 8:1)): 9.8 ± 3.5 µg/mL

Q: Which Cmax [2, 7] does the source give for `Cn1nnnc1SCC1=C(C(=O)O)N2C(=O)[C@@H](NC(=O)[C@H](O)c3ccccc3)[C@H]2SC1` [Cefamandole, Cefamandol] here?
A: 5.9 to 16.4 µg/mL

Q: What about the Cmax [2, 8] of the same molecule?
A: 2.3 to 4.6 µg/mL

Q: And the “% Bioverfügbarkeit” value [2, 9]?
A: 6.0 ± 2.3%

Q: And the “% Bioverfügbarkeit” value [2, 10]?
A: 46.5 ± 16.6%

Q: For `CO[C@@]1(NC(=O)Cc2cccs2)C(=O)N2C(C(=O)O)=C(COC(N)=O)CS[C@@H]21` [Cefoxitin], which Cmax [2, 7] is on record?
A: 4.7 to 10.8 µg/mL

Q: What about the “% Bioverfügbarkeit” value [2, 9] of the same molecule?
A: 0%

Q: And the “% Bioverfügbarkeit” value [2, 10]?
A: 77.0 ± 22.5%

Q: What does the source list for Gentamicin?
A: Cmax ([4]; Acconon Con + Laureth-12 (weight ratio 8:1)): 15.4 ± 2.3 µg/mL; Cmax ([4]; Kontrolle Wasser, no absorption enhancer): 3.9 µg/mL; Cmax ([4]; Labrasol + Laureth-12 (weight ratio 8:1)): 9.6 ± 1.9 µg/mL; Cmax ([4]; Natriumcaprylat (30%) + Laureth-12 (weight ratio 8:1)): 14.1 ± 6.9 µg/mL

Q: What does the source list for `CC1(C)S[C@@H]2[C@H](NC(=O)Cc3ccccc3)C(=O)N2[C@H]1C(=O)O` [Penicillin G]?
A: Cmax ([2]; baboon, in vivo, rectal suppository, Kontrolle ohne Resorptionsverstärker, read-out: Cmax Bereich): 1.2 to 2.4 µg/mL; Cmax ([2]; baboon, in vivo, rectal suppository, Mit Resorptionsverstärker System: 500 mg Antibiotikum, 125 mg Laureth-12, 250 mg Labrasol, 1125 mg Witepsol H15, read-out: Cmax Bereich): 2 to 11.1 µg/mL; % Bioverfügbarkeit [2, 9]: 17.4 ± 8.0%; % Bioverfügbarkeit [2, 10]: 38.2 ± 26.1%; Cmax ([4]; rat, in vivo, 5 mg, Cmax, Acconon Con + Laureth-12 (weight ratio 8:1)): 3.5 ± 1 µg/mL; Cmax ([4]; rat, in vivo, 5 mg, Cmax, Kontrolle Wasser, no absorption enhancer): 0.5 ± 0.1 µg/mL; Cmax ([4]; rat, in vivo, 5 mg, Cmax, Labrasol + Laureth-12 (weight ratio 8:1)): 5.2 ± 1.6 µg/mL; Cmax ([4]; rat, in vivo, 5 mg, Cmax, Natriumcaprylat (30%) + Laureth-12 (weight ratio 8:1)): 7.4 ± 2.4 µg/mL
